Laboratory results: patent US8592423B2, “Inhibitors of PDE10” (Bristol-Myers Squibb Company, priority 2011, dated 2013)
pIC50: −log10 of the molar value. Read-outs that look alike come from different tables or passages of the source.

Biological target: PDE10 (Homo sapiens (Human), UniProt Q9Y233)
Test: LE_PDE10A inhibition assay (SPA, cAMP hydrolysis)
Type: biochemical
Details: 3H-cAMP at Km 25 nM
Protocol: LE_PDE10A Inhibition Assay:
The PDE10 inhibition assay in 384-well plates was conducted to identify substances for the inhibition of cyclic nucleotide hydrolysis by the PDE10 enzyme. […] PDE10 activity was measured using Scintillation Proximity Assay (SPA)-based methods. PDE10 catalyses the hydrolysis of the intracellular messenger adenosine […] (cAMP) to the non-cyclic adenosine 5′-monophosphate (AMP). The SPA assay was based upon the selective interaction of the tritiated product with yttrium oxide LEADseeker beads.
The assay buffer contained 25 mM HEPES pH 7.4, 2.5 mM Magnesium Chloride and 0.1% BSA. […] The reaction was terminated by adding 6 μL of 5 mg/mL of yttrium oxide LEADseeker beads. The beads were allowed to settle for 3 hours before plates were read in the LEEDSeaker for 6 minutes. The measured signal ccould be converted to activity relative to an […] control (100%). IC50 values were calculated by using in-house data software and IC50 values were generated by nonlinear regression analysis. (Bristol-Myers Squibb Company, Wallingford, Conn.).

Sequence of PDE10 (Q9Y233 whole entry): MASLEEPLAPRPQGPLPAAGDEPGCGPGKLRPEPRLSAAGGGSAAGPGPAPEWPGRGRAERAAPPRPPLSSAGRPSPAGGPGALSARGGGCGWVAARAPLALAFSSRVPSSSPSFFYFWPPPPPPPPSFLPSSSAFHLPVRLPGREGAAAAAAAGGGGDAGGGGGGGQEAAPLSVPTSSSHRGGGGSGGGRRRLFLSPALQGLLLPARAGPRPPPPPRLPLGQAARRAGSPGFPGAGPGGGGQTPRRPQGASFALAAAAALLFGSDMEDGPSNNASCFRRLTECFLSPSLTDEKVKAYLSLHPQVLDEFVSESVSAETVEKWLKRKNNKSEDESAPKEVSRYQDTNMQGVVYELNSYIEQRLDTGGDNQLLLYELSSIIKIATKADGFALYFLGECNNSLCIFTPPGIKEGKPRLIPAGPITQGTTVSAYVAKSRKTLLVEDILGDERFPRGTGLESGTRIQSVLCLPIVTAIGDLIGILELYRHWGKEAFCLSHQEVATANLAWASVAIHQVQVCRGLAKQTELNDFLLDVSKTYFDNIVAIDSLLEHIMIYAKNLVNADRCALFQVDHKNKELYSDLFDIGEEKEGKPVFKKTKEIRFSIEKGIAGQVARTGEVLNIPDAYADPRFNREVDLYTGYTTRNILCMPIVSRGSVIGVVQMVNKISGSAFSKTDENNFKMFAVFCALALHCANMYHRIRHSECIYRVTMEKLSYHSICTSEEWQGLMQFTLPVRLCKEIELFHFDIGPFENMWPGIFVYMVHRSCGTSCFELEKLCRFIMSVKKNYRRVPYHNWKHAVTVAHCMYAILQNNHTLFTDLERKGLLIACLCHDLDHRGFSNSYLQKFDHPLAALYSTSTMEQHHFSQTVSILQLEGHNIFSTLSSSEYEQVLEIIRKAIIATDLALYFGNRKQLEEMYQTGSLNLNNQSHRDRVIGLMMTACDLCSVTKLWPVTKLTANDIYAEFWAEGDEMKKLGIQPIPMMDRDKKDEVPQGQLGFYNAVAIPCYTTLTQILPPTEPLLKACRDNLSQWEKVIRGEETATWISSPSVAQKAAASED

| pIC50 (read-out: IC50) | pIC50 (read-out: Range (IC50)) | Structure (SMILES) |
| --- | --- | --- |
| 7.84 | – | Cc1cc(C)n2nc(C3CC3c3nc(-c4ccccc4)cn3C)nc2n1 (stereo not drawn) [5,7-Dimethyl-2-(2-(1-methyl-4-phenyl-1H-imidazol-2-yl)cyclopropyl)-[1,2,4]-triazolo[1,5-a]pyrimidine] |
| 8.18 | – | CCCn1cc(-c2ccccc2)nc1C1CC1c1nc2c(C)ncc(C)n2n1 (stereo not drawn) [5,8-dimethyl-2-(2-(4-phenyl-1-propyl-1H-imidazol-2-yl)cyclopropyl)-[1,2,4]triazolo[1,5-a]pyrazine] |
| 8.75 | – | Cc1ncc(C)n2nc(C3CC3c3nc(-c4ccccc4)cn3C)nc12 (racemic) [5,8-Dimethyl-2-(2-(1-methyl-4-phenyl-1H-imidazol-2-yl)cyclopropyl)-[1,2,4]triazolo[1,5-a]pyrazine] |
| – | 8.00 to 8.29 | CCn1cc(-c2ccccc2)nc1C1CC1c1nc2c(C)ncc(C)n2n1 (stereo not drawn) [2-(2-(1-Ethyl-4-phenyl-1H-imidazol-2-yl)cyclopropyl)-5,8-dimethyl-[1,2,4]triazolo[1,5-a]pyrazine] |
| – | 8.30 to 9.10 | Cc1ncc(C)n2nc(C3CC3c3nc(-c4ccccc4)cn3C)nc12 (single isomer, unassigned) [drawing 16, 5,8-dimethyl-2-(2-(1-methyl-4-phenyl-1H-imidazol-2-yl)cyclopropyl)-[1,2,4]triazolo[1,5-a]pyrazine] |
| – | 7.40 to 8.00 | Cc1ncc(C)n2nc(C3CC3c3nc(-c4ccccc4)cn3C)nc12 (single isomer, unassigned) [drawing 17, 5,8-dimethyl-2-(2-(1-methyl-4-phenyl-1H-imidazol-2-yl)cyclopropyl)-[1,2,4]triazolo[1,5-a]pyrazine] |
